In one assay the target is T1, mTOR (Homo sapiens, UniProt P42345).
T1 construct: FLAG; made in house
T1 sequence (P42345 1362-2549): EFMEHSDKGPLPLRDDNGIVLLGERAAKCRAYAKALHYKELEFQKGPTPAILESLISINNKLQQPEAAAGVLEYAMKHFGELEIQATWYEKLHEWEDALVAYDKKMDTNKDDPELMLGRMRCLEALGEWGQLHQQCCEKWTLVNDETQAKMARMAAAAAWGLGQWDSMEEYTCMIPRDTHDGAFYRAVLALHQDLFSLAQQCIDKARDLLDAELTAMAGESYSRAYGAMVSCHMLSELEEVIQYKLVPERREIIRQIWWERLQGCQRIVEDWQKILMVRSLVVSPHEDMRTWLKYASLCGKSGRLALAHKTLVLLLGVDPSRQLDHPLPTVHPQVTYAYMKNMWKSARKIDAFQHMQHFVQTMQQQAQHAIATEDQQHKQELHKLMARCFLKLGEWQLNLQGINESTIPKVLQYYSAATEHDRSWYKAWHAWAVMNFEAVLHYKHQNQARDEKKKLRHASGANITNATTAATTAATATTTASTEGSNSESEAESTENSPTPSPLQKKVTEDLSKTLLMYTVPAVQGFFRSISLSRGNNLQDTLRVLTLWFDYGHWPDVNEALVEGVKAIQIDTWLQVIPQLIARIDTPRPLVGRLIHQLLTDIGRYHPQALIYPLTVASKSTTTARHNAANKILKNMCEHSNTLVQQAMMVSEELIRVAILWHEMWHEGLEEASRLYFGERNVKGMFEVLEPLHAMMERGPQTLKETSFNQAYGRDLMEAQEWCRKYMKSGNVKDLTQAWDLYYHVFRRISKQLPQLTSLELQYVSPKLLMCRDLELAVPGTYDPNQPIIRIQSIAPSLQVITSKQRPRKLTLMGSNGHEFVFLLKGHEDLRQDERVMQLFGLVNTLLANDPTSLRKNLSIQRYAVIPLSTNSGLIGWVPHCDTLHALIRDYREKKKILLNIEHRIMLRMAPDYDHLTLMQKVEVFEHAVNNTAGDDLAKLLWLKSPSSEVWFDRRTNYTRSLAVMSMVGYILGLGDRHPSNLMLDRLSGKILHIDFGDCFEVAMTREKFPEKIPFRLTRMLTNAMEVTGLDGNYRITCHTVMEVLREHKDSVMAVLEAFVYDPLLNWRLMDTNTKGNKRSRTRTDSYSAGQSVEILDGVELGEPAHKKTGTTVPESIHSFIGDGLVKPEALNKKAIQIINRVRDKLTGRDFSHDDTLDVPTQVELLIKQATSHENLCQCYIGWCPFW
Kind of assay: In Vitro mTOR Kinase Assay (Echo), Test (a)(ii). It counts as biochemical. The conditions noted are these: read-out: mTOR Kinase Assay (Echo). In outline: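 Compounds were acoustically dispensed, then incubated with FLAG-tagged mTOR (1362-2549) for 2 hours at room temperature. Reactions were quenched with EDTA plus detection antibody and AlphaScreen beads and left overnight in the dark before reading. Loss of phospho-T389 signal gave IC50 values.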
Regarding `C[C@H]1COCCN1c1cc(C2(S(C)(=O)=O)CC2)nc(-c2ccc(NC(=O)NCCO)cc2)n1` [Example 2i, 3-(2-hydroxyethyl)-1-[4-[4-[(3S)-3-methylmorpholin-4-yl]-6-(1-methylsulfonylcyclopropyl)pyrimidin-2-yl]phenyl]urea], the IC50 came to 2.07 nM.

For `CC(C)NC(=O)Nc1ccc(-c2nc(N3CCOC[C@@H]3C)cc(C3(S(C)(=O)=O)CCCC3)n2)cc1` [Example 4c, 1-[4-[4-[(3S)-3-methylmorpholin-4-yl]-6-(1-methylsulfonylcyclopentyl)pyrimidin-2-yl]phenyl]-3-propan-2-yl-urea], the IC50 is 16.9 nM.

Take `C[C@H]1COCCN1c1cc(C2(S(=O)(=O)C3CC3)CC2)nc(-c2ccc(NC(=O)NCCCO)cc2)n1` [Example 3l, 1-[4-[4-(1-cyclopropylsulfonylcyclopropyl)-6-[(3S)-3-methylmorpholin-4-yl]pyrimidin-2-yl]phenyl]-3-(3-hydroxypropyl)urea]: the IC50 is 2.57 nM.

Regarding `CN(C)CCNC(=O)Nc1ccc(-c2nc(N3CCOCC3)cc(C3(S(C)(=O)=O)CCCC3)n2)cc1` [Example 12n, 3-(2-dimethylaminoethyl)-1-[4-[4-(1-methylsulfonylcyclopentyl)-6-morpholin-4-ylpyrimidin-2-yl]phenyl]urea], the IC50 stood at 238 nM.

On to `C[C@H]1COCCN1c1cc(C2(S(=O)(=O)C3CC3)CC2)nc(-c2ccc(NC(=O)NC3COC3)cc2)n1` [Example 3t, 1-[4-[4-(1-cyclopropylsulfonylcyclopropyl)-6-[(3S)-3-methylmorpholin-4-yl]pyrimidin-2-yl]phenyl]-3-(oxetan-3-yl)urea], for which the IC50 was 4.79 nM.

Turning to `C[C@H]1COCCN1c1cc(C2(S(=O)(=O)c3ccncc3)CC2)nc(-c2ccc(NC(=O)NC3CC3)cc2)n1` [Example 6m, 3-cyclopropyl-1-[4-[4-[(3S)-3-methylmorpholin-4-yl]-6-(1-pyridin-4-ylsulfonylcyclopropyl)pyrimidin-2-yl]phenyl]urea], the IC50 is 0.936 nM.

As for `CC(C)NC(=O)Nc1ccc(-c2nc(N3CCOC[C@@H]3C)cc(C3(S(=O)(=O)c4ccncc4)CC3)n2)cc1` [Example 6c, 1-[4-[4-[(3S)-3-methylmorpholin-4-yl]-6-(1-pyridin-4-ylsulfonylcyclopropyl)pyrimidin-2-yl]phenyl]-3-propan-2-yl-urea], the IC50 is 3.21 nM.

`C[C@H]1COCCN1c1cc(C2(S(=O)(=O)c3ccccc3C(F)(F)F)CC2)nc(-c2ccc(NC(=O)NC3CCC3)cc2)n1` [Example 10a, 3-cyclobutyl-1-[4-[4-[(3S)-3-methylmorpholin-4-yl]-6-[1-[2-(trifluoromethyl)phenyl]sulfonylcyclopropyl]pyrimidin-2-yl]phenyl]urea]: the IC50 stood at 39.5 nM.

The assay is the same for the next values; noted with them: table of enzyme assay Test (a)(ii); read-out: Test (a)(ii) IC50.
With `C[C@H]1COCCN1c1cc(C2(S(=O)(=O)c3ccc(F)cc3F)CC2)nc(-c2ccc(NC(=O)NCCF)cc2)n1` [Example 57c, 1-[4-[4-[1-(2,4-difluorophenyl)sulfonylcyclopro-pyl]-6-[(3S)-3-methylmorpholin-4-yl]pyrimidin-2-yl]phenyl]-3-(2-fluoroethyl)urea], the IC50 came out at 6.95 nM.

Consider `C[C@H]1COCCN1c1cc(C2(S(=O)(=O)c3cccc(F)c3)CC2)nc(-c2ccc(NC(=O)NCCF)cc2)n1` [Example 53c, 3-(2-fluoroethyl)-1-[4-[4-[1-(3-fluorophenyl)sulfonylcyclopro-pyl]-6-[(3S)-3-methylmorpholin-4-yl]pyrimidin-2-yl]phenyl]urea], for which the IC50 came out at 0.688 nM.

Regarding `C[C@H]1COCCN1c1cc(C2(S(=O)(=O)c3ccc(Cl)cc3)CCOCC2)nc(-c2ccc(NC(=O)NCCO)cc2)n1` [Example 23l, 1-[4-[4-[4-(4-chlorophenyl)sulfonyloxan-4-yl]-6-[(3S)-3-methylmorpholin-4-yl]pyrimidin-2-yl]phenyl]-3-(2-hydroxyethyl)urea], the IC50 was found to be 8.88 nM.

Regarding `CNC(=O)Nc1ccc(-c2nc(N3CCOCC3)cc(C3(S(=O)(=O)c4ccc(F)cc4)CC3)n2)cc1` [Example 36ap, 3-[4-[4-[1-(4-fluorophenyl)sulfonylcyclopropyl]-6-morpholin-4-ylpyrimidin-2-yl]phenyl]-1-methylurea], the IC50 came out at 15.6 nM.

For the molecule `C[C@H]1COCCN1c1cc(C2(S(=O)(=O)C3CC3)CCC2)nc(-c2ccc(NC(=O)NCc3ncc[nH]3)cc2)n1` [Example 36i, 1-[4-[4-(1-cyclopropylsulfonylcyclobutyl)-6-[(3S)-3-methylmorpholin-4-yl]pyrimidin-2-yl]phenyl]-3-(1H-imidazol-2-ylmethyl)urea], the IC50 was 51.8 nM.

In the case of `C[C@H]1COCCN1c1cc(C2(S(=O)(=O)C3CC3)CCOCC2)nc(-c2ccc(NC(=O)Nc3cnn(C)c3)cc2)n1` [Example 23i, 1-[4-[4-(4-cyclopropylsulfonyloxan-4-yl)-6-[(3S)-3-methylmorpholin-4-yl]pyrimidin-2-yl]phenyl]-3-(1-methylpyrazol-4-yl)urea], the IC50 stood at 25.4 nM.

On to `CCNC(=O)Nc1ccc(-c2nc(N3CCOC[C@@H]3C)cc(C3(S(=O)(=O)c4ccc(F)cc4C)CC3)n2)cc1` [Example 82e, 3-ethyl-1-[4-[4-[1-(4-fluoro-2-methylphenyl)sulfonylcyclopropyl]-6-[(3S)-3-methylmorpholin-4-yl]pyrimidin-2-yl]phenyl]urea], for which the IC50 was 20.8 nM.

As for `CCS(=O)(=O)C1(c2cc(N3CCOC[C@@H]3C)nc(-c3ccc(NC(=S)NCCO)cc3)n2)CCC1` [Example 88a, 1-[4-[4-(1-ethylsulfonylcyclobutyl)-6-[(3S)-3-methylmorpholin-4-yl]pyrimidin-2-yl]phenyl]-3-(2-hydroxyethyl)thiourea], the IC50 came to 4.48 nM.

On to `Cc1csc(S(=O)(=O)C2(c3cc(N4CCOC[C@@H]4C)nc(-c4ccc(NC(=O)NCCCO)cc4)n3)CCC2)n1` [Example 98d, 3-(3-hydroxypropyl)-1-[4-[4-[(3S)-3-methylmorpholin-4-yl]-6-[1-[(4-methyl-1,3-thiazol-2-yl)sulfonyl]cyclobutyl]pyrimidin-2-yl]phenyl]urea], for which the IC50 stood at 4.41 nM.

For `C[C@H]1COCCN1c1cc(C2(S(=O)(=O)c3ccccn3)CC2)nc(-c2ccc(NC(=O)Nc3ccc(C(F)(F)F)cc3)cc2)n1` [Example 28i, 1-[4-[4-[(3S)-3-methylmorpholin-4-yl]-6-(1-pyridin-2-ylsulfonylcyclopropyl)pyrimidin-2-yl]phenyl]-3-[4-(trifluoromethyl)phenyl]urea], the IC50 stood at 1.53 nM.

On to `Cc1cc(F)ccc1S(=O)(=O)C1(c2cc(N3CCOC[C@@H]3C)nc(-c3ccc(NC(=O)NCC(F)F)cc3)n2)CC1` [Example 82d, 3-(2,2-difluoroethyl)-1-[4-[4-[1-(4-fluoro-2-methylphenyl)sulfonylcyclopropyl]-6-[(3S)-3-methylmorpholin-4-yl]pyrimidin-2-yl]phenyl]urea], for which the IC50 is 24.3 nM.

For `O=C(NCCO)Nc1ccc(-c2nc(N3CCOCC3)cc(C3(S(=O)(=O)C4CC4)CCCC3)n2)cc1` [Example 13l, 1-[4-[4-(1-cyclopropylsulfonylcyclopentyl)-6-morpholin-4-ylpyrimidin-2-yl]phenyl]-3-(2-hydroxyethyl)urea], the IC50 was 10.8 nM.

As for `CC[C@H]1COCCN1c1cc(C2(S(C)(=O)=O)CC2)nc(-c2ccc(NC(=O)NC)cc2)n1` [Example 84, 1-[4-[4-[(3S)-3-Ethylmorpholin-4-yl]-6-(1-methylsulfonylcyclopropyl)pyrimidin-2-yl]phenyl]-3-methylurea], the IC50 was found to be 9.56 nM.

The values are drawn from patent US20090018134A1, “Compounds - 945” (AstraZeneca AB, priority 2007, published 2009).
